In patent publication US12559495B2 (Agency for Science, Technology and Research, priority 2013, dated 2026):

Columns and labels:
Type in all cases: cell-based
HEK293-STF3A cells = test: STF3A assay (luciferase reporter); conditions: Homo sapiens, 24 h, 1 day of treatment
Method in brief: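 HEK293 cells stably carrying the STF luciferase reporter and expressing Wnt3A, seeded at 2×10^4 cells/well and grown overnight. Serially diluted compound (final 50 μM to 1.5 nM) applied for 1 day at 37 °C. Steady-Glo luciferase luminescence read after 10 min at room temperature.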

p-LRP6 (Ser1490) [1] = test: Phospho-LRP6 assay, time course, PA-1 teratocarcinoma cells
Description: FIGS. 3A-3B show the time-course of p-LRP6 (Ser 1490) inhibition (in vitro) induced by porcupine inhibitors. FIG. 3A is a Western blot analysis of PA-1 teratocarcinoma cells treated with 2 μM of Compound 5, for the time points indicated with antibodies as indicated on the left. As a control, cells treated with either growth medium alone or the vehicle (DMSO) for 48 h were included. FIG. 3B is a densitometric analysis of pLRP6 relative to total LRP6.
The present target efficacy biomarker assay measures a decrease in levels of p-LRP6 (i.e. phosphorylated LRP-6) (Ser1490) upon treatment with a porcupine inhibitor (Compound 5). […] The inhibitory effect remains up to 72 h (data not shown) in the presence of the compound and up to 12 h after the compound has been removed (data not shown).

p-LRP6 (Ser1490) [2] = test: Phospho-LRP6 assay, dose titration, HPAF-II pancreatic adenocarcinoma cells
Description: FIGS. 4A-4B show pLRP6 in vitro inhibition-dose titration. FIG. 4A is a Western blot analysis of HPAF-II pancreatic adenocarcinoma cells treated with the indicated doses of Compound 5 for 6 h with antibodies as indicated on the left. The […] controls are a cell lysate of untreated STF3A cells and cells treated with vehicle only (DMSO). FIG. 4B is a densitometric analysis of pLRP6 relative to total LRP6.
While 2 μM led to 50-60% inhibition after 6 h of in vitro treatment, 3.3 nM of Compound 5 still inhibited p-LRP6 (Ser1490) by about 20% in this assay (FIG. 4).

Cn1c(=O)c2c(ncn2CC(=O)Nc2ccc(-c3ccccc3)nn2)n(C)c1=O [Compound 5, 2-(1,3-dimethyl-2,6-dioxo-1,2,3,6-tetrahydro-7H-purin-7-yl)-N-(6-phenylpyridazin-3-yl)acetamide]
IC50 (HEK293-STF3A cells): < 100 nM
reduction in p-LRP6 (p-LRP6 (Ser1490) [1]; 2 μM, from 4 h onwards, in vitro (FIG. 3)): greater than 50%
duration of inhibitory effect after the compound has been removed (p-LRP6 (Ser1490) [1]; data not shown): up to 12 h
duration of inhibitory effect in the presence of the compound (p-LRP6 (Ser1490) [1]; data not shown): up to 72 h
inhibition at 0.0033 µM (p-LRP6 (Ser1490) [2]; Homo sapiens, HPAF-II, 3.3 nM, 6 h (FIG. 4)): ~20%
inhibition at 2 µM (p-LRP6 (Ser1490) [2]; Homo sapiens, HPAF-II, 2 μM, after 6 h of in vitro treatment (FIG. 4)): 50 to 60%
inhibition of p-LRP6 (p-LRP6 (Ser1490) [2]; concentrations lower than 3.3 nM, HPAF-II cells (data not shown)): did not inhibit

CC(C(=O)Nc1ccc(-c2ccccc2)nn1)n1cnc2c1c(=O)n(C)c(=O)n2C (stereo not drawn) [Compound 77, 2-(1,3-dimethyl-2,6-dioxo-2,3-dihydro-1H-purin-7(6H)-yl)-N-(6-phenylpyridazin-3-yl)propanamide]
IC50 (HEK293-STF3A cells): < 100 nM

CC(C(=O)Nc1ccc(-c2ccc(F)cc2)nn1)n1cnc2c1c(=O)n(C)c(=O)n2C (stereo not drawn) [Compound 78, 2-(1,3-dimethyl-2,6-dioxo-2,3-dihydro-1H-purin-7(6H)-yl)-N-(6-(4-fluorophenyl)pyridazin-3-yl)propanamide]
IC50 (HEK293-STF3A cells): < 1000 nM

C[C@@H](C(=O)Nc1ccc(-c2ccccc2)nn1)n1cnc2c1c(=O)n(C)c(=O)n2C [Compound 79, (S)-2-(1,3-dimethyl-2,6-dioxo-2,3-dihydro-1H-purin-7(6H)-yl)-N-(6-phenylpyridazin-3-yl)propanamide]
IC50 (HEK293-STF3A cells): < 100 nM

C[C@H](C(=O)Nc1ccc(-c2ccccc2)nn1)n1cnc2c1c(=O)n(C)c(=O)n2C [Compound 80, (R)-2-(1,3-dimethyl-2,6-dioxo-2,3-dihydro-1H-purin-7(6H)-yl)-N-(6-phenylpyridazin-3-yl)propanamide]
IC50 (HEK293-STF3A cells): > 10000 nM

CC(C(=O)Nc1ccc(-c2nccs2)cc1)n1cnc2c1c(=O)n(C)c(=O)n2C (stereo not drawn) [Compound 81, 2-(1,3-dimethyl-2,6-dioxo-2,3-dihydro-1H-purin-7(6H)-yl)-N-(4-(thiazol-2-yl)phenyl)propanamide]
IC50 (HEK293-STF3A cells): < 100 nM

C[C@H](C(=O)Nc1ccc(-c2nccs2)cn1)n1cnc2c1c(=O)n(C)c(=O)n2C [Compound 83, (R)-2-(1,3-dimethyl-2,6-dioxo-1,2,3,6-tetrahydro-7H-purin-7-yl)-N-(5-(thiazol-2-yl)pyridin-2-yl)propanamide]
IC50 (HEK293-STF3A cells): < 10000 nM

C[C@@H](C(=O)Nc1ccc(-c2nccs2)cn1)n1cnc2c1c(=O)n(C)c(=O)n2C [Compound 84, (S)-2-(1,3-dimethyl-2,6-dioxo-1,2,3,6-tetrahydro-7H-purin-7-yl)-N-(5-(thiazol-2-yl)pyridin-2-yl)propanamide]
IC50 (HEK293-STF3A cells): < 100 nM

Cc1nc(-c2ccc(NC(=O)[C@@H](C)n3cnc4c3c(=O)n(C)c(=O)n4C)nc2)cs1 [Compound 85, (R)-2-(1,3-dimethyl-2,6-dioxo-2,3-dihydro-1H-purin-7(6H)-yl)-N-(5-(2-methylthiazol-4-yl)pyridin-2-yl)propanamide]
IC50 (HEK293-STF3A cells): < 5000 nM

Cc1nc(-c2ccc(NC(=O)[C@H](C)n3cnc4c3c(=O)n(C)c(=O)n4C)nc2)cs1 [Compound 86, (S)-2-(1,3-dimethyl-2,6-dioxo-2,3-dihydro-1H-purin-7(6H)-yl)-N-(5-(2-methylthiazol-4-yl)pyridin-2-yl)propanamide]
IC50 (HEK293-STF3A cells): < 100 nM

Cn1c(=O)c2c(ncn2CCC(=O)Nc2ccc(-c3ccsc3)cc2)n(C)c1=O [Compound 87, 3-(1,3-dimethyl-2,6-dioxo-1,2,3,6-tetrahydro-7H-purin-7-yl)-N-(4-(thiophen-3-yl)phenyl)propanamide]
IC50 (HEK293-STF3A cells): < 100 nM

Cn1c(=O)c2c(ncn2CCCC(=O)Nc2ccc(-c3ccsc3)cc2)n(C)c1=O [Compound 88, 4-(1,3-dimethyl-2,6-dioxo-1,2,3,6-tetrahydro-7H-purin-7-yl)-N-(4-(thiophen-3-yl)phenyl)butanamide]
IC50 (HEK293-STF3A cells): < 100 nM

Cn1c(=O)c2c(ncn2CC(=O)Nc2ccc(-c3cccs3)cc2)n(C)c1=O [Compound 89, 2-(1,3-dimethyl-2,6-dioxo-1,2,3,6-tetrahydro-7H-purin-7-yl)-N-(4-(thiophen-2-yl)phenyl)acetamide]
IC50 (HEK293-STF3A cells): < 100 nM

Cn1c(=O)c2c(ncn2CCC(=O)Nc2ccc(-c3cccs3)cc2)n(C)c1=O [Compound 90, 3-(1,3-dimethyl-2,6-dioxo-1,2,3,6-tetrahydro-7H-purin-7-yl)-N-(4-(thiophen-2-yl)phenyl)propanamide]
IC50 (HEK293-STF3A cells): < 100 nM

Cn1c(=O)c2c(ncn2CCCC(=O)Nc2ccc(-c3cccs3)cc2)n(C)c1=O [Compound 91, 4-(1,3-dimethyl-2,6-dioxo-1,2,3,6-tetrahydro-7H-purin-7-yl)-N-(4-(thiophen-2-yl)phenyl)butanamide]
IC50 (HEK293-STF3A cells): < 100 nM

Cc1nc(-c2ccc(NC(=O)CCn3cnc4c3c(=O)n(C)c(=O)n4C)cc2)cs1 [Compound 92, 3-(1,3-dimethyl-2,6-dioxo-1,2,3,6-tetrahydro-7H-purin-7-yl)-N-(4-(2-methylthiazol-4-yl)phenyl)propanamide]
IC50 (HEK293-STF3A cells): < 1000 nM

Cn1c(=O)c2c(ncn2CCC(=O)Nc2ccc(-c3nccs3)cc2)n(C)c1=O [Compound 93, 3-(1,3-dimethyl-2,6-dioxo-1,2,3,6-tetrahydro-7H-purin-7-yl)-N-(4-(thiazol-2-yl)phenyl)propanamide]
IC50 (HEK293-STF3A cells): < 1000 nM

Cn1c(=O)c2c(ncn2CCCC(=O)Nc2ccc(-c3nccs3)cc2)n(C)c1=O [Compound 94, 4-(1,3-dimethyl-2,6-dioxo-1,2,3,6-tetrahydro-7H-purin-7-yl)-N-(4-(thiazol-2-yl)phenyl)butanamide]
IC50 (HEK293-STF3A cells): < 1000 nM
